Experimental findings from paper PMC4916434, “Evaluation of the inhibition potential of plumbagin against cytochrome P450 using LC-MS/MS and cocktail approach” (Scientific Reports, 2016) are described below.

In one data set the target is T1, CYP2E1 (Rattus norvegicus, UniProt P05182).
T1 construct: consisting of pooled HLMs (0.5 mg/ml) or RLMs (1 mg/ml) and an NADPH-regenerating system; from tissue; host or cells: rat liver microsomes prepared in house
The experiment in a line: biochemical. It counts as in vitro ADME. The procedure: (§1) In this study, the rats were fasted overnight and killed by cervical dislocation before removal of the liver. The liver was excised, rinsed with ice-cold saline (0.9% NaCl w/v), weighed and homogenized in a […] Tris/KCl buffer (pH 7.4). Subsequently, the homogenate was centrifuged at 10,000 × g at 4 °C for 30 min. The supernatant was then centrifuged at 105,000 × g at 4 °C for 60 min. The pellet was reconstituted with […] Tris/KCl buffer (pH 7.4) and stored at −150 °C until use. The protein concentration of the liver microsomes was determined by a protein quantitative assay using bicinchoninic acid[22].
(§2) Microsomal incubation was carried out at 37 °C in a mixture of 200 μl in 0.05 M Tris/HCl buffer (pH 7.4) consisting of pooled HLMs (0.5 mg/ml) or RLMs (1 mg/ml) and an NADPH-regenerating system including MgCl2 (5 mM), G6P (10 mM), G6PDH (0.4 U/ml) and NADP (1 mM). Substrates were added into the incubation mixture and obtained the final concentrations (10 μM phenacetin for CYP1A2, 20 μM bupropion for CYP2B1/6, 20 μM tolbutamide for CYP2C9/11, 5 μM dextromethorphan for CYP2D1/6, 20 μM chlorzoxazone for CYP2E1 and 10 μM midazolam for CYP3A2/4), which were close to Km respectively. The proportion of organic solvent was not higher than 1% (v/v) in the incubation mixture. After pre-incubation for 5 min, the reaction was initiated by addition of NADP. Incubations were performed for 20 min, stopped by adding 200 μl ice-cold acetonitrile. And then 20 μl internal standard solution was added (3-acetamidophenol 2 μg/ml, chlorpropamide 2 μg/ml and mebendazole 2 μg/ml). The solution was mixed thoroughly for 3 min and centrifuged for 10 min at 16,000 × g at 4 °C. The supernatant (60 μl) was transferred to autosampler vials, and 2 μl was injected into LC-MS/MS system.
The IC50 (concentration of inhibitor to cause 50% inhibition of original enzyme activity) values were determined with the same incubation condition above. The specific concentrations of plumbagin were ranged from 0.1 μM to 50 μM. […]
All data were presented as mean ± SD. […] All results were analyzed in quadruplicate. […]

In a further data set the target is T2, CYP1A2 (Rattus norvegicus, UniProt P04799).
T2 construct: consisting of pooled HLMs (0.5 mg/ml) or RLMs (1 mg/ml) and an NADPH-regenerating system; from tissue; host or cells: rat liver microsomes prepared in house
T2 sequence (P04799 1-513): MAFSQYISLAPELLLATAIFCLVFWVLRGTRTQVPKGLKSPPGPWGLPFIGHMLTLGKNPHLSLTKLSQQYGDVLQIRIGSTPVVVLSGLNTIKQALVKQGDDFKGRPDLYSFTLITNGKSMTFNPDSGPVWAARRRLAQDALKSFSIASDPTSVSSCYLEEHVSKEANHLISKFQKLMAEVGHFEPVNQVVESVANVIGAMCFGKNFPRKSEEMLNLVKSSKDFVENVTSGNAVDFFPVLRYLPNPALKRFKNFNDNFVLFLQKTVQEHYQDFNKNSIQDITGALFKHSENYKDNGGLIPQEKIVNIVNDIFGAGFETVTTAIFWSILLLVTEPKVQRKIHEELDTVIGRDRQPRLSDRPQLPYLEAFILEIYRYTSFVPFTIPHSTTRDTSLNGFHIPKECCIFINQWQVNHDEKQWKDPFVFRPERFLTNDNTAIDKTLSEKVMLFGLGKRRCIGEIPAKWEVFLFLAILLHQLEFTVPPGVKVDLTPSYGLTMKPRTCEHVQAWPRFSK
The experiment in a line: CYP1A2 inhibition (phenacetin O-deethylation) in rat liver microsomes, cocktail LC-MS/MS. It counts as in vitro ADME. The procedure: as §1, §2
The IC50 (concentration of inhibitor to cause 50% inhibition of original enzyme activity) values were determined with the same incubation condition above. The specific concentrations of plumbagin were ranged from 0.1 μM to 50 μM. The IC50 values were calculated by plotting relative activities over the logarithm of plumbagin concentrations using GraphPad Prism 5.0 (GraphPad software Inc., CA, USA).
Cocktail probe substrates were then added and incubated for 20 min. Reactions were stopped with 200 μl ice-cold acetonitrile. The samples were treated according to the microsomal incubation method and then injected into LC-MS/MS for analysis.
Kinetic studies were performed for determining the types of inhibition on CYP by plumbagin. Pooled HLMs (0.5 mg/ml) or RLMs (1 mg/ml) with plumbagin (1 μM, 2 μM, 5 μM and 10 μM) were incubated in 0.05 M Tris/HCl buffer (pH 7.4) for 20 min at 37 °C. A series of concentrations for cocktail probe substrates were used: 2.5–20 μM phenacetin for CYP1A2; 5–40 μM bupropion for CYP2B1/6; 5–40 μM tolbutamide for CYP2C9/11; 1.25–10 μM dextromethorphan for CYP2D1/6; 5–40 μM chlorzoxazone for CYP2E1; 2.5–80 μM midazolam for CYP3A2; and 0.625–5 μM midazolam for CYP3A4. Enzyme kinetics as well as statistical analysis were performed using GraphPad Prism 5.0.
All data were presented as mean ± SD. The IC50 values were fitted by non-linear regression analysis using GraphPad Prism 5.0. The kinetic parameters were obtained by fitting velocity data to kinetic models (Michaelis-Menten) using GraphPad Prism 5.0. The Lineweaver-Burk Plot (the reciprocal of reaction velocities versus the reciprocal of substrates concentrations) was used to determine the quality of fit to a specific inhibition model. The inhibition constant (Ki) was obtained by a secondary plot using the slopes of the primary Lineweaver-Burk Plot (Km/Vmax versus inhibitor concentrations). αKi was obtained from a secondary plot using the y-intercepts of the Lineweaver-Burk plot (1/Vmax versus inhibitor concentrations). All results were analyzed in quadruplicate. One-way analysis of variance was used to estimate the significance of differences. […]

T1 sequence (P05182 whole entry): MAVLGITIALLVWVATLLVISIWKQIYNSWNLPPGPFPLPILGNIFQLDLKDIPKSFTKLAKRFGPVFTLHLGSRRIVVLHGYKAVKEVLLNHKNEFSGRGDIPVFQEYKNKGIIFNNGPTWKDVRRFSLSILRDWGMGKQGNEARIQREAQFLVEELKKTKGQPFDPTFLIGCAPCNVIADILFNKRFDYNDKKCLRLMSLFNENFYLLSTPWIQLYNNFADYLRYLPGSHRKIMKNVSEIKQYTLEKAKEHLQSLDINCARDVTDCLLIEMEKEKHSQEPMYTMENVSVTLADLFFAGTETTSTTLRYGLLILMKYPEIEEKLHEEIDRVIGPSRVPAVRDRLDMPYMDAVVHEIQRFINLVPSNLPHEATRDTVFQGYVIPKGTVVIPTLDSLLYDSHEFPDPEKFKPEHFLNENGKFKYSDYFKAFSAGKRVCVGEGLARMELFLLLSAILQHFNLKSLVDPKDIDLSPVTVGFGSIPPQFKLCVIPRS

With `CC1=CC(=O)c2c(O)cccc2C1=O` [plumbagin, 5-hydroxy-2-methyl-1,4-naphthoquinone], the IC50 against CYP2E1 worked out at 3.72 µM; against CYP1A2, 2650 nM. For the same molecule, the figures for the inhibition constant (Ki) on CYP2E1 and at CYP1A2 were 6.28 µM and 2640 nM, respectively. Besides, the Type of inhibition entry at CYP2E1 is recorded as “competitive”; at CYP1A2 (RLMs, Lineweaver-Burk), “mixed-type”. Also, the α on CYP1A2 (RLMs) is on record as 0.31. The Time-dependent inhibition result on CYP1A2 (RLMs, pre-incubation with NADPH 0, 5, 10, 20 min, plumbagin 0.2, 0.5, 1 μM) is listed as “no time-dependent inhibition”. Also, the αKi at CYP1A2 (RLMs, secondary plot of y-intercepts, phenacetin 2.5-20 μM) was found to be 8.51 µM.
